In patent US20040152895A1, “Sulfonamides” (priority 2003, published 2004):
pKi: −log10 of the molar value.

Biological target: T1, human and rat GPR-14 (UniProt Q9UKP6)
T1 sequence (Q9UKP6 1-389): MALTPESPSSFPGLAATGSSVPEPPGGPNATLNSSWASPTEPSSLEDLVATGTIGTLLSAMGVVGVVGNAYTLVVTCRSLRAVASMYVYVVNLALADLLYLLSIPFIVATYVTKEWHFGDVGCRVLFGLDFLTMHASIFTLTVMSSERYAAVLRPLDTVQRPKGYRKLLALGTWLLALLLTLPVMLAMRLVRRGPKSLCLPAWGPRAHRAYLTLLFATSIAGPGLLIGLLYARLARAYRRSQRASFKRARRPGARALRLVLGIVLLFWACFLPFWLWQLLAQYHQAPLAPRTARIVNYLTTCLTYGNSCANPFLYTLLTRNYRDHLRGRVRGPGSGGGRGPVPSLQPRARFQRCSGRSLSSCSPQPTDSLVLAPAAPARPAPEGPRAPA
Test: Radioligand binding assay ([125I] h-U-II)
Settings: HEK-293 cell membranes, 200 pM [125I] h-U-II
Protocol: HEK-293 cell membranes containing stable cloned human and rat GPR-14 (20 ug/assay) were incubated with 200 pM [125I] h-U-II (200 Ci/mmol^−1 in the presence of increasing concentrations of test compounds in DMSO (0.1 nM to 10 uM), in a final incubation volume of 200 ul (20 mM Tris-HCl, 5 mM MgCl2). Incubation was done for 30 minutes at room temperature followed by filtration GF/B filters with Brandel cell harvester. ^125I labeled U-II binding was quantitated by gamma counting. Nonspecific binding was defined by ^125I U-II binding in the presence of 100 nM of unlabeled human U-II. Analysis of the data was performed by nonlinear least square fitting.

Work on `CCCSc1ncc(S(=O)(=O)Nc2ccc(Cl)c(OCCN(C)C)c2)c(OC)n1` [Example 1, 4-methoxy-2-propylsulfanyl-pyrimidine-5-sulfonic Acid [4-chloro-3-(2-dimethylamino-ethoxy)-phenyl]-amide] yielded a pKi of 6.66.
